The record followed here is ChEMBL document CHEMBL1150365, “Improved synthesis of antibacterial 3-substituted 6-anilinouracils” (Bioorg Med Chem Lett, 2008).

In brackets after ≈: the same amount, converted by molar mass. Activity calls are given as the source filed them. The calls are words filed in the database; no cut-off is given here.

The subject of one series is Streptococcus pneumoniae. Description: Antibacterial activity against Streptococcus pneumoniae 1707/4 in presence of bovine serum by broth microdilution method. In kind it is functional. Background: Broth dilution looks for growth in wells or tubes with falling amounts of substance.
Series [1] relates to Staphylococcus aureus. Description: Antibacterial activity in Staphylococcus aureus injected CFU mouse at 100 mg/kg, ip after 30 mins. In kind it is functional, organism-based. More on the design: dose 100 mg/kg.
A short description of series [2]: Aqueous solubility of the compound. Conditions: water. The class given is physicochemical.
A further series has as its system Enterococcus faecalis. In words: Antibacterial activity against Enterococcus faecalis ICB 27159 in presence of bovine serum by broth microdilution method. The class given is functional.
Series [3] is described as follows: Inhibition of Staphylococcus aureus DNA polymerase 3C.
Series [4] has as its system Staphylococcus aureus. Description: Antibacterial activity against Staphylococcus aureus 133 by broth microdilution method. The class given is functional.

As a reminder, the MIC is the least concentration at which growth counts as inhibited. By solubility is commonly meant how much of the substance goes into solution per volume. In general, IC50 refers to the midpoint of a concentration-inhibition curve. Read a high IC50 as a need for much substance. Take `O=c1cc(Nc2ccc3c(c2)CCC3)[nH]c(=O)n1CC1CC1`: the MIC with Streptococcus pneumoniae was 4 µg/mL; in the series with Enterococcus faecalis it was 16 µg/mL; against Staphylococcus aureus [4] it was 4 µg/mL (≈ 13.5 µM). Further, the outcome in the series on Staphylococcus aureus [1] was inactive. The concentration in solution in series [2] (solubility) was 3.3 µg/mL (≈ 11.1 µM). Further, the IC50 in series [3] came out at 0.3 µM.

In the case of `CN(C)C(=O)c1cc(Cn2c(=O)cc(Nc3ccc4c(c3)CCC4)[nH]c2=O)on1`, the MIC with Streptococcus pneumoniae worked out at 16 µg/mL; in the series on Enterococcus faecalis, 32 µg/mL; against Staphylococcus aureus [4], 32 µg/mL (≈ 80.9 µM). Further, half-maximal inhibition in series [3] (IC50) required 1.2 µM.

As for `CCc1cc(Nc2cc(=O)n(CCCO)c(=O)[nH]2)ccc1C`, the MIC was 8 µg/mL in the series on Streptococcus pneumoniae, 16 µg/mL in the series with Enterococcus faecalis and 8 µg/mL (≈ 26.4 µM) with Staphylococcus aureus [4]. Also, the half-inhibitory concentration (IC50) in series [3] is 0.3 µM.

As to `CCOC(=O)Cn1c(=O)cc(Nc2ccc3c(c2)CCC3)[nH]c1=O`, the values for the MIC in the series with Streptococcus pneumoniae, in the series with Enterococcus faecalis and in the series on Staphylococcus aureus [4] were 16 µg/mL, 64 µg/mL and 16 µg/mL (≈ 48.6 µM), respectively. This compound also displayed an IC50 in series [3] of 1.5 µM.

As to `O=C(Cn1c(=O)cc(Nc2ccc3c(c2)CCC3)[nH]c1=O)c1ccc(Br)cc1`, the minimal inhibitory concentration (MIC) in the series on Streptococcus pneumoniae, in the series on Enterococcus faecalis and in the series on Staphylococcus aureus [4] was above 256 µg/mL throughout. Besides, the IC50 in series [3] was above 13 µM.

`COC(=O)c1ccc(Cn2c(=O)cc(Nc3ccc4c(c3)CCC4)[nH]c2=O)o1`: the figures for the MIC with Streptococcus pneumoniae, in the series on Enterococcus faecalis and against Staphylococcus aureus [4] were 16 µg/mL, 32 µg/mL and 32 µg/mL (≈ 83.9 µM), respectively. Besides, the IC50 in series [3] stood at 2 µM.
